Legend:
[1] = system: human placental villous explants (extravillous trophoblasts); assay: Human villous explant culture: EVT outgrowth and HLA-G transcript levels (trophoblast differentiation); format: cell-based; settings: 96 h culture; for EVT outgrowth: villous explants 6-8 weeks of gestation, 3% O2, different doses; for transcript levels of HLA-G: villous explants, 3% O2, real-time RT-PCR
Experimental: (§1) Preparation and cultivation of human villous explants of first trimester placentas were performed as described (Non-patent Document 13). Briefly, human placental villi at 6-8 weeks of gestation were aseptically dissected to remove decidual tissue and fetal membranes. Small pieces of placental villi (8 mg wet weight) were dissected under a stereomicroscope (Leica Microsystems, Tokyo, Japan). Each villous piece was put on Millicell-CM culture dish inserts (12-mm diameter) (Millipore, Bedford, Mass.) that were precoated with 200 μl of undiluted Matrigel Growth Factor Reduced (BD Bioscience pharmingen) and placed in 24-well culture plates. The villous pieces were covered with 150 μl of culture medium (DMEM/F12 without serum supplemented with 100 U/ml penicillin, 100 μg/ml streptomycin, and 0.25 μg/ml ascorbic acid, pH 7.4) (Invitrogen, Carlsbad, Calif.), whereas the bottom chamber contained 500 μl of culture medium. […] Culture media were changed every 48 h and collected for measurement of glucose concentration.
(§2) At the end of cultures, some villous explants including EVT outgrowth were subjected to RNA extraction for real-time RT-PCR to quantify the transcript levels of human leukocyte antigen-G (HLA-G). Glucose utilization by the villous explants was calculated from the difference between glucose concentration in fresh medium and that in the conditioned medium after 48 h of culture using an enzymatic assay (Mitsubishi BCL, Tokyo, Japan). The results were expressed as mg per 0.1 g wet weight tissue/48 h.
(§3) Quantitative real-time RT-PCR of TrkB and human leukocyte antigen-G (HLA-G) transcript levels in placental villi and mouse kidneys with xenotransplanted human villi was performed using a SmartCycler (Takara, Tokyo, Japan) with primers and hybridization probes for TrkB and β-actin as described (Non-patent Document 32). Primers for TrkB corresponded to the catalytic kinase domain of the receptor to avoid the amplification of truncated isoforms (Non-patent Document 33). Fragmented TrkB was specifically amplified using a reported primer (Non-patent Document 37). Validated Taqman gene expression assay was used to quantify the expression of HLA-G (Applied Biosystems, Forster City, Calif.). Data were normalized based on β-actin transcript levels.

[2] = system: human placental villous explants (villous cytotrophoblasts); assay: Human villous explant culture: trophoblast proliferation and viability (H&E, PCNA, Ki-67, glucose utilization); format: cell-based; settings: for detachment of trophoblast layers from villous stromal core / number of villous cytotrophoblasts: 96 h culture, H&E, TrkB ectodomain 10 μg/ml, K252a 1,000 nM, K252b 1,000 nM
Experimental: as §1, §2
(§4) In some experiments, morphological changes in villous explants were evaluated by hematoxylin and eosin (H&E) staining. Furthermore, the activity of cellular proliferation was determined by immunohistochemical detection of proliferating cell nuclear antigen (PCNA) and Ki-67 antigens. To measure the progression of apoptosis, some villous explants were subjected to a quantitative caspase-3/7 enzyme assay as described (Non-patent Documents 12, 16). Apoptosis in villous explants was also assayed by detecting DNA fragmentation using in situ terminal deoxynucleotidyl transferase-mediated […] nick end-labeling (TUNEL) (Non-patent Document 17).
(§5) To localize BDNF and TrkB, BDNF and TrkB immunostaining in placental villi and villous tissues of ectopic pregnancy were performed as described (Non-patent Document 11). BDNF antigen and TrkB antigen were detected by rabbit anti-BDNF polyclonal antibody (Chemicon, Temecula, Calif.) and chicken anti-TrkB polyclonal antibody (Promega, Madison, Wis.) recognizing full length TrkB were used, respectively, after dilution to 1:100. Some slides were subjected to proliferating cell nuclear antigen (PCNA) or Ki-67 immunostaining to evaluate cellular proliferation, whereas cytokeratin and HLA-G immunostaining were performed to identify trophoblasts and extravillous trophoblasts (EVTs) in the xenotransplanted human villi, respectively. After deparaffinization and dehydration, antigen retrieval was performed by autoclave heating at 121° C. for 10 min (PCNA and Ki-67), treatment with 0.4 mg/ml proteinase K (Sigma, St. Louis, Mo.) at room temperature for 5 min (cytokeratin), or microwave heating in 10 mM citrate buffer (pH 6) for 3×3 min (HLA-G). Endogenous peroxidase activities were quenched with 0.3% […] in methanol for 30 min. […]

[3] = system: human placental villous explants (villous trophoblasts); assay: Human villous explant culture: apoptosis (TUNEL, caspase-3/7 enzyme assay); format: cell-based; settings: 96 h culture; for proportion of TUNEL-positive nuclei: TrkB ectodomain 10 μg/ml, K252a 1,000 nM, K252b 1,000 nM; for caspase-3/7 activities, increase relative to controls: villous explants, 3% O2
Experimental: as §1, §4

[4] = system: human placental villi transplanted under the kidney capsule; assay: Xenotransplantation of human villi into SCID mice as in vivo model of ectopic pregnancy
Description: (§6) To explore the roles of endogenous TrkB signaling in human ectopic pregnancy, xenotransplantation of human placental villi at 7-8 weeks of gestation into SCID mice (C.B-17/Icr-scid/scidJcl) (CLEA Japan, Tokyo, Japan) was used as an in vivo model. The care and use of animals was approved by the Animal Research Committee, Akita University School of Medicine. In preparation of grafts, small pieces of the placental villi were dissected as described above and kept in ice-cold PBS until transplantation. After anesthetizing of the SCID mice at 8-11 weeks of age with tribromoethanol (14-20 mg/kg) (Sigma, St. Louis, Mo.), the left and right kidneys were sequentially exteriorized. A 0.5 mm incision was then made in each kidney capsule, and a piece of the placental villi (5 mg wet weight) was transplanted underneath the capsule using a blunt tip tweezers. Treatment was initiated in animals after 1 week of transplantation when murine vascular networks were known to appear in areas of cytotrophoblast invasion (Non-patent Document 18). Animals weighted between 19-22 g on day of treatment. Intraperitoneal (ip) administration of K252a dissolved in physiological saline (500 μg/kg) was performed daily. For negative controls, treatment with K252b (500 μg/kg) or vehicle alone was used. The doses of K252a and K252b chosen for these experiments were based on previous studies (Non-patent Documents 12, 19). Some animals were treated daily with methotrexate (ip; 1 mg/kg) (Sigma) corresponding to the therapeutic dose used for medical treatment of ectopic pregnancy (Non-patent Document 3). The mice were killed after 7 days of treatment. Kidneys with villi transplants were excised and homogenized to measure hCG-β levels and caspase-3/7 activities. To identify trophoblasts in the kidney, cytokeratin, a marker for trophoblasts (Non-patent Document 20), was detected by immunohistochemistry. In addition to H&E staining, in vivo cell proliferation and apoptosis in the excised samples were evaluated by immunostaining of PCNA and Ki-67, and the TUNEL assay, respectively.
as §3, §5

[5] = Side effects and body weight of treated SCID mice; format: in vivo
Description: as §6, with “Animals weighted between 19-22 g on day of treatment. Intraperitoneal (ip) administration of K252a dissolved in physiological saline (500 μg/kg) was performed daily. For negative controls, treatment with K252b (500 μg/kg) or vehicle alone was used. The doses of K252a and K252b chosen for these experiments were based on previous studies (Non-patent Documents 12, 19). Some animals were treated daily with methotrexate (ip; 1 mg/kg) (Sigma) corresponding to the therapeutic dose used for medical treatment of ectopic pregnancy (Non-patent Document 3). The mice were killed after 7 days of treatment. Kidneys with villi transplants were excised and homogenized to measure hCG-β levels and caspase-3/7 activities.” left out

[6] = K252a 500 μg/kg ip daily for 7 days

With `COC(=O)[C@@]1(O)C[C@H]2O[C@]1(C)n1c3ccccc3c3c4c(c5c6ccccc6n2c5c31)C(=O)NC4` [K252a] as the compound, how does the EVT outgrowth [1] read?
The EVT outgrowth was “suppressed EVT outgrowth in a dose-dependent manner”.

And the “transcript levels of HLA-G” value [1]?
The value was “decreases in the transcript levels of HLA-G”.

And the “detachment of trophoblast layers from villous stromal core” value [2]?
Its value is “induced partial detachment of trophoblast layers”.

What about the “number of villous cytotrophoblasts” value [2] of the same compound?
Its value is “decreased the number of villous cytotrophoblasts”.

And the inhibition at 1 µM ([2]; Homo sapiens, 48 h, read-out: glucose utilization by villous explants, inhibition)?
The inhibition at 1 µM was greater than 94%.

What about the “proportion of TUNEL-positive nuclei” value [3] of the same compound?
The value was “increased the proportion of TUNEL-positive nuclei”.

And the “caspase-3/7 activities, increase relative to controls” value [3]?
Its value is “Increases in caspase-3/7 activities”.

And the “TUNEL-positive nuclei in cytotrophoblasts” value [4, 6]?
The value was “increases in TUNEL-positive nuclei”.

What about the “activation of caspase-3/7 within the xenografts, increase relative to vehicle” value [4, 6] of the same compound?
Its value is 4.1 fold.

And the “cell proliferation by PCNA and Ki-67 staining” value [4, 6]?
Its value is “suppression of cell proliferation”.

And the “transcript levels for HLA-G in kidney with transplanted villi” value [4, 6]?
Its value is “major decreases in transcript levels for HLA-G”.

And the “decrease in hCG-β levels in tissue homogenates” value ([4]; K252a 500 μg/kg ip daily for 7 days, RIA)?
The value was 73.3%.

And the “cell numbers of invading EVTs and cytotrophoblasts in villous cores” value ([4]; K252a 500 μg/kg ip daily for 7 days, cytokeratin, HLA-G, H&E staining)?
The value was “decreases in cell numbers of invading EVTs and cytotrophoblasts”.

What about the body weight ([5]; 500 μg/kg ip daily, during studies, mean±SEM) of the same compound?
The body weight was 19.27 ± 1.03 g.

What about the body weight changes ([5]; K252a 500 μg/kg ip daily) of the same compound?
Its body weight changes is “no body weight changes”.

With `C[C@]12O[C@H](C[C@]1(O)C(=O)O)n1c3ccccc3c3c4c(c5c6ccccc6n2c5c31)CNC4=O` [K252b] as the compound, how does the “all parameters tested in the xenotransplant model” value ([4]; K252b 500 μg/kg ip daily for 7 days) read?
The value was “ineffective”.

Which “trophoblast differentiation, proliferation, and survival” value ([4]; MTX 1 mg/kg ip daily for 7 days) does the source give for `CN(Cc1cnc2nc(N)nc(N)c2n1)c1ccc(C(=O)N[C@@H](CCC(=O)O)C(=O)O)cc1` [MTX, methotrexate] here?
Its value is “did not inhibit”.

What does the source list for “TrkB ectodomain: soluble ectodomain of TrkB (R&D Systems), binds BDNF and competingly suppresses BDNF/TrkB binding”?
EVT outgrowth [1]: suppressed EVT outgrowth in a dose-dependent manner; transcript levels of HLA-G [1]: decreases in the transcript levels of HLA-G; detachment of trophoblast layers from villous stromal core [2]: induced partial detachment of trophoblast layers; number of villous cytotrophoblasts [2]: decreased the number of villous cytotrophoblasts; proportion of TUNEL-positive nuclei [3]: increased the proportion of TUNEL-positive nuclei; caspase-3/7 activities, increase relative to controls [3]: Increases in caspase-3/7 activities

Source: US20140179677A1, “THERAPEUTIC AGENT FOR ECTOPIC PREGNANCY” (AKITA UNIVERSITY, priority 2010, published 2014)
